In patent US9889180B2, “Method of treating cancer” (Agency for Science, Technology and Research, priority 2012, dated 2018):

Assays:
RWPE1-PI3K cells = test: FACS cell death analysis in RWPE1-PI3K cells; format: cell-based, human; settings: DZNep (2.5 μM) for 3 days with increasing doses of IFN-γ
Procedure: For the assessment of cell death, cells were harvested in 70% ethanol. Fixed cells were stained with Propidium Iodide (P.I) (50 μg/mL). The stained cells were analyzed for DNA content by FACS in a FACSCalibur (Becton Dickinson Instrument). % of cell death was defined as the sub-G1 population quantified using the CellQuest software (Becton Dickinson). The percentage of dead cells or sub-G1 cells was calculated by comparing the results of each experiment to the results from DMSO-treated cells. Each assay was repeated a minimum of three times, with results reported as means+s.e.m.

[1] = system: IFN responsive genes (IFI16, IRF1, OAS1); test: Quantitative PCR of IFN responsive genes in DU145 prostatospheres; format: cell-based, human; settings: DZNep with IFN-γ
Procedure: Total RNA was isolated by using Trizol (Invitrogen) and purified with the RNeasy Mini Kit (Qiagen). The microarray hybridization was performed using the Illumina Gene Expression Sentrix BeadChip HumanRef-8_V3, and data analysis was performed by GeneSpring software from Agilent Technologies as described previously. The analyzed gene sets by GeneSpring were next subjected to Ingenuity Pathway Analysis (IPA) for gene ontology (GO) analysis. Reverse transcription and quantitative PCR assays were performed using High Capacity cDNA Archive kit and KAPA SyBr Fast qPCR kit (KAPA biosystems). For quantification of mRNA levels, 18S level was used as an internal control. All reactions were analyzed in an Applied Biosystems PRISM 7500 Fast Real-Time PCR system in 96-well plate format. Prostatospheres were generated according to protocols known to the skilled person in the art. […] 7 days old prostatospheres formed were stained with 4 μg/ml p-Iodonitrotetrazolium Violet (INT) overnight and were counted and analyzed using a GelCount™ automatic plate scanner (Oxford Optronics) and GelCount Version 0.025.1 software (Oxford Optronics). […]

[2] = system: EZH2 and IFNGR1 expression; test: Immunohistochemistry of EZH2 and IFNGR1 in DU145 xenograft tumors; format: in vivo; settings: tumors resected from treated mice
Procedure: Tissue microarray slides (PR956, BR1503b, LC2083, and LV6161) were purchased from US Biomax. Staining and image analysis of tissue microarray were performed by Histopathology Department from Institute of Molecular and Cell Biology, Agency for Science, Technology, and Research (A*STAR), Singapore. Anti-EZH2 (D2C9 XP) antibody was purchased from Cell Signaling, anti-MYC (9E10) and anti-IFNGR1 antibody (GIR-94) was purchased from Santa Cruz Biotechnology. Briefly, five-micron paraffin-embedded tissue sections cut, deparaffinized, rehydrated, antigens were retrieved by Proteinase K solution; sections were then incubated in 3% H2O2 at room temperature to block endogenous peroxidase. Slides were incubated in primary antibody against EZH2 or IFNGR1 for 45 mins followed by 30 min incubation with anti-mouse Labelled Polymer (Dako, Calif.). Specificity of the immunostaining was determined by the inclusion of isotype-specific IgG as negative control. […]
For in vivo evaluation of DZNep and IFN-γ treatment, the experiments were conducted in compliance with animal protocol approved by the ASTAR-Biopolis Institutional Animal Care and Use Committee (IACUC) of Singapore. […] Tumors were measured by vernier calliper at least twice per week and tumors volume was calculated with formula: V=W*W*L/2. […] Differences among groups and treatments were determined by ANOVA followed by t tests. […]

[3] = system: IFNGR1 expression and STAT1 activation; test: Western blot of IFNGR1 and IFN signaling in T47D cells; format: cell-based, human
Procedure: Western Blotting was performed as described previously. Briefly, Cells were scraped, collected, and lysed in RIPA buffer. To release histones from chromatin, cell lysates were further sonicated for 15 sec using a XL2000 Microson Ultrasonic Processor (Misonix). Equal amounts of protein (30 μg) were separated on SDS-polyacrylamide gels and transferred to PVDF membranes. The blots were probed with antibodies against EED (07-368), SUZ12 (07-379), trimethylated H3-K27 (07-449), Acetyl-Histone H3 (06-599), which were purchased from Upstate Biotechnology. IFNGR1 (GIR-94) and anti-IFI16 (1G7) were purchased from Santa Cruz. EZH2 phospho S21 (00388) was purchased from Bethyl Laboratories. EZH2 (AC22), P110α PI3K, p-AKT (T308), p-AKT (S473), pSTAT1Y701, total STAT1, Histone H3 (3H1), Beclin-1 and cleaved PARP were purchased from Cell Signaling. Myc and Actin were purchased from Roche Applied Science and Sigma-Aldrich, respectively.

LNCaP cells = test: Cell proliferation assay (CellTiter-Glo) in LNCaP cells; format: cell-based, human; settings: siRNA knockdown combined with IFN-γ treatment
Procedure: The optimal cell seeding was determined empirically for all cell lines by examining the growth of a wide range of seeding densities in a 96-well format to identify conditions that permitted proliferation for 6 days. Cells were then plated at the optimal seeding density 24 h before siRNA or drug treatment in triplicate. Plates were incubated for 6 days at 37° C. in 5% CO2. Cells were then lysed with CellTiter-Glo (CTG) (Promega) and chemiluminescent signal was detected with a microplate reader (TECAN). In addition, an untreated plate of cells was harvested at the time of drug or siRNA addition (T0) to quantify the starting number of cells. CTG values obtained after the 6 day treatment were expressed as percentages of the T0 value and plotted against time of treatment. Cells received 1-5 μM of DZNep, 25 ng/mL of IFN-γ and 0.1-2.5 μM of GSK343 unless stated otherwise for 72-96 h.

Row | Compound | induction of apoptosis / cell death (RWPE1-PI3K cells) | expression of IFN genes in prostatospheres [1] | EZH2 expression in tumors (IHC) [2] | IFNGR1 expression in tumors (IHC) [2] | IFNGR1 expression [3] | STAT1 activation and PARP cleavage ([3]; DZNep co-treated with IFN-γ) | cell growth after knockdown (LNCaP cells)
1 | Cl.Nc1nccc2c1ncn2[C@@H]1C=C(CO)[C@@H](O)[C@H]1O [DZNep, (−)-1-[(1R,4R,5S)-3-(Hydroxymethyl)-4,5-dihydroxy-2-cyclopenten-1-yl]4-aminoimidazo[4,5-c]pyridine hydrochloride] | but not RWPE1-PI3K cells | enhanced response to IFN-γ stimulation | downregulation of EZH2 | upregulation of IFNGR1 | restored the IFNGR1 expression | increased STAT1 activation and PARP cleavage | 
2 | EZH2 knockdown: EZH2 siRNA: 5′-GACUCUGAAUGCAGUUGCU-3′ (SEQ ID NO: 1) (other strand not given here) |  |  |  |  |  |  | no such an effect was seen
